Measured values taken from patent publication US11339156B2, “3-(1H-pyrazol-4-yl)pyridine allosteric modulators of the M4 muscarinic acetylcholine receptor” (Merck Sharp & Dohme Corp., priority 2017, dated 2022).

Molecular target: T1, human M4 muscarinic acetylcholine receptor (Homo sapiens, UniProt P08173)
T1 construct: expressed in transfected cells
T1 sequence (P08173 1-479): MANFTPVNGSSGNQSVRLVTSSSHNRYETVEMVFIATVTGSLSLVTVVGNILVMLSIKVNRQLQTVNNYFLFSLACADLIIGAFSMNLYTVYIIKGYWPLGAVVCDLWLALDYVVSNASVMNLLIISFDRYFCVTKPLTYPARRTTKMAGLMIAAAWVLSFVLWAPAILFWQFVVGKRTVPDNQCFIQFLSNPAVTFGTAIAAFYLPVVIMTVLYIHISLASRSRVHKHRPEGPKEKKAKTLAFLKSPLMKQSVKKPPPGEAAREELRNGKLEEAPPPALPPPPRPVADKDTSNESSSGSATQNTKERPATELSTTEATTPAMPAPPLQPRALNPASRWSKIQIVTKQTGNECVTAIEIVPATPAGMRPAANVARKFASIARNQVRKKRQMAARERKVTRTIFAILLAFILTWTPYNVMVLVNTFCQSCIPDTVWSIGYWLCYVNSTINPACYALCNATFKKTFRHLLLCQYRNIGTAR
Test: human FLIPR-based M4 PAM assay (CHO-K1 cells with human M4 receptor and Gαqi5, calcium dye fluorescence)
Type: cell-based
Conditions: inflection point of 4 parameter logistic fit; acetylcholine added at 20% of maximum response; read-out: M4PAM IP
In short: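 The FLIPR read recorded 4 min after compound was added across a concentration range, then 3.5 min after acetylcholine giving 20% of its maximal response, with an occasional extra EC70 addition. Cells were dye-loaded for about 1 h at 37 °C. Potency is the curve inflection point from a four-parameter logistic fit.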

Row | SMILES | EC50
1 | Cc1cn2ccc(-c3ncc(F)cc3-c3cnn(CC(C)(C)C(F)F)c3)cc2n1 [Example 106, 7-{3-[1-(3,3-difluoro-2,2-dimethylpropyl)-1H-pyrazol-4-yl]-5-fluoropyridin-2-yl}-2-methylimidazo[1,2-a]pyridine] | 69.5 nM
2 | COc1ccc(-c2cnn(CC(C)(C)C)c2)c(-c2ccn3cc(C)nc3c2)n1 [Example 85, 7-{3-[1-(2,2-dimethylpropyl)-1H-pyrazol-4-yl]-6-methoxypyridin-2-yl}-2-methylimidazo[1,2-a]pyridine] | 149 nM
3 | Cc1nc2cc(-c3nc(C#N)ccc3-c3cnn(CCC(F)(F)C(F)F)c3)ccc2n1C [Example 30, 6-(1,2-dimethyl-1H-benzimidazol-5-yl)-5-[1-(3,3,4,4-tetrafluorobutyl)-1H-pyrazol-4-yl]pyridine-2-carbonitrile] | 102 nM
4 | Cc1cn2ccc(-c3nc(C#N)ccc3-c3cnn(CC4(F)CCC4)c3)cc2n1 [Example 118, 5-(1-((1-fluorocyclobutyl)methyl)-1H-pyrazol-4-yl)-6-(2-methylimidazo[1,2-a]pyridin-7-yl)picolinonitrile] | 30.7 nM
5 | Cc1nc2cc(-c3nc(C#N)ccc3-c3cnn(CC(C)(C)C(C)(F)F)c3)ccc2n1C [Example 28, 5-[1-(3,3-difluoro-2,2-dimethylbutyl)-1H-pyrazol-4-yl]-6-(1,2-dimethyl-1H-benzimidazol-5-yl)pyridine-2-carbonitrile] | 67.4 nM
6 | N#Cc1ccc(-c2cnn(CC(F)(F)C(F)(F)C(F)(F)F)c2)c(-c2ccn3ccnc3c2)n1 [Example 24, 5-[1-(2,2,3,3,4,4,4-heptafluorobutyl)-1H-pyrazol-4-yl]-6-imidazo[1,2-a]pyridin-7-ylpyridine-2-carbonitrile] | 89.9 nM
7 | N#Cc1ccc(-c2cnn(CC(F)(F)C(F)(F)F)c2)c(-c2ccn3ccnc3c2)n1 [Example 42, 6-imidazo[1,2-a]pyridin-7-yl-5-[1-(2,2,3,3,3-pentafluoropropyl)-1H-pyrazol-4-yl]pyridine-2-carbonitrile] | 151 nM

Now from value to compound:

Row | EC50 | SMILES
8 | 77.3 nM | Cc1nc(-c2ccc3c(c2)nc(C)n3C)c(-c2cnn(CC(C)(C)C(F)(F)F)c2)cc1F [Example 131, 5-(5-fluoro-6-methyl-3-(1-(3,3,3-trifluoro-2,2-dimethylpropyl)-1H-pyrazol-4-yl)pyridin-2-yl)-1,2-dimethyl-1H-benzo[d]imidazole]
9 | 75.8 nM | Cc1cn2ncc(-c3nc(C#N)ccc3-c3cnn(CC(C)(C)C(F)(F)F)c3)cc2n1 [Example 39, 6-(2-methylimidazo[1,2-b]pyridazin-7-yl)-5-[1-(3,3,3-trifluoro-2,2-dimethylpropyl)-1H-pyrazol-4-yl]pyridine-2-carbonitrile]
10 | 27.5 nM | N#Cc1ccc(-c2cnn(CC3CCC3)c2)c(-c2ccn3ccnc3c2)n1 [Example 93, 5-[1-(cyclobutylmethyl)-1H-pyrazol-4-yl]-6-imidazo[1,2-a]pyridin-7-ylpyridine-2-carbonitrile]
11 | 126 nM | Cc1ccc(-c2cnn(Cc3ccccc3F)c2)c(-c2ccc3c(c2)C(=O)N(C2CC2)C3)n1 [Example 13, 2-cyclopropyl-6-{3-[1-(2-fluorobenzyl)-1H-pyrazol-4-yl]-6-methylpyridin-2-yl}-2,3-dihydro-1H-isoindol-1-one]
12 | 36.5 nM | CC(C)(C)Cn1ncc(-c2ccc(C#N)nc2-c2ccn3ccnc3c2)c1F [Example 135, 5-[1-(2,2-dimethylpropyl)-5-fluoro-1H-pyrazol-4-yl]-6-imidazo[1,2-a]pyridin-7-ylpyridine-2-carbonitrile]
13 | 113 nM | Cc1nc2cc(-c3ncccc3-c3cnn(CC(C)(C)C(C)(F)F)c3)ccc2n1C [Example 102, 5-{3-[1-(3,3-difluoro-2,2-dimethylbutyl)-1H-pyrazol-4-yl]pyridin-2-yl}-1,2-dimethyl-1H-benzimidazole]
14 | 22.8 nM | CC(C)CCn1cc(-c2ccc(Cl)nc2-c2ccc3c(c2)C(=O)N(Cc2ccc(O)cc2)C3)cn1 [Example 114, 6-{6-chloro-3-[1-(3-methylbutyl)-1H-pyrazol-4-yl]pyridin-2-yl}-2-(4-hydroxybenzyl)-2,3-dihydro-1H-isoindol-1-one]
